We go through three molecules from ChEMBL document CHEMBL4364347, “Recent advances in class IIa histone deacetylases research” (Bioorg Med Chem, 2019).

SMILES strings stand for the structures. A value given as a limit tells only on which side of the number the result lay.

Test [1] deals with T1, Protein deacetylase HDAC6 (Homo sapiens, UniProt Q9UBN7).
T1 sequence (Q9UBN7 whole entry): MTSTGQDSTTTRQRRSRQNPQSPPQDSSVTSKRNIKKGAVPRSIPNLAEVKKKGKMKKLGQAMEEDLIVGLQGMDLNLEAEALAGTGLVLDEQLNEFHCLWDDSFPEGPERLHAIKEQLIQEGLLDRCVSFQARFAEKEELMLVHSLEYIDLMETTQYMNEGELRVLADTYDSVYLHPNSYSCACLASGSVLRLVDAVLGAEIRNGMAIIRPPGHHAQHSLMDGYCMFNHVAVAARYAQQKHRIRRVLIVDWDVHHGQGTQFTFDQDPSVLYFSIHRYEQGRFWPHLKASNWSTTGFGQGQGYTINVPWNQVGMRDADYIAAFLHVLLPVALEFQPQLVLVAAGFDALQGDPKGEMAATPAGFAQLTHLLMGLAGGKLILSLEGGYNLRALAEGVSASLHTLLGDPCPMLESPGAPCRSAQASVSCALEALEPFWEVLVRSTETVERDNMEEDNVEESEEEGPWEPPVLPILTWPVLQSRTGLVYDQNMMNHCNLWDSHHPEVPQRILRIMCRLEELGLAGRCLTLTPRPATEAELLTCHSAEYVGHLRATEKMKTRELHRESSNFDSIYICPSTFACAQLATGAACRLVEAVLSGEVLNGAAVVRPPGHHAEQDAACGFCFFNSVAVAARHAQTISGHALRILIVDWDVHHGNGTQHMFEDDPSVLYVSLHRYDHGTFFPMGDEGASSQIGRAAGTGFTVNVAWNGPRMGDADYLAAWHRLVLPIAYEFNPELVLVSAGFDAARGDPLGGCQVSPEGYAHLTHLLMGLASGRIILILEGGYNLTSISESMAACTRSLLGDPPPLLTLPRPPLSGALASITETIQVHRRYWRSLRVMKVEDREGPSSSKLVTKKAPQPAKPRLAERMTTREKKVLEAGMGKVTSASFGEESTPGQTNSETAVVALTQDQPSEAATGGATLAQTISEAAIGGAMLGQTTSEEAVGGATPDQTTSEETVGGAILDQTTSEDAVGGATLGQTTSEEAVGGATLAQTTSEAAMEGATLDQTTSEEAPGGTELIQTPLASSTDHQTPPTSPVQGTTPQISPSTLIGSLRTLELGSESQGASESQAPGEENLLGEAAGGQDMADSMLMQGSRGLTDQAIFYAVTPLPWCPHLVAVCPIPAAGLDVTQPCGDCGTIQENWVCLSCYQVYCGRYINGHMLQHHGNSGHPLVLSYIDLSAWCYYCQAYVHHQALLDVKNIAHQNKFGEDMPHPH
Description: Inhibition of HDAC6 (unknown origin).

For the next test, the target named is T2, Histone deacetylase 11 (Homo sapiens, UniProt Q96DB2).
T2 sequence (Q96DB2 whole entry): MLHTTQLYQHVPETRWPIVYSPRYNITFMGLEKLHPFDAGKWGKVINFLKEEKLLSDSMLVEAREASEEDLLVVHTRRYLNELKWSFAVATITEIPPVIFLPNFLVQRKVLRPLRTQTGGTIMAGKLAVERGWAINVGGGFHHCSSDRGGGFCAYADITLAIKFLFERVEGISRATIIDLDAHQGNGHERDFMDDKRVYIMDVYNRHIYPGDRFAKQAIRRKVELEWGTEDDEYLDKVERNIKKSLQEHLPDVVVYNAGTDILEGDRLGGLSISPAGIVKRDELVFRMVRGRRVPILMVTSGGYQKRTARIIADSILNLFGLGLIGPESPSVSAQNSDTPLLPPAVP
Description: Inhibition of HDAC11 (unknown origin).

In test [2] the target is T3, Polyamine deacetylase HDAC10 (Homo sapiens, UniProt Q969S8).
T3 sequence (Q969S8 whole entry): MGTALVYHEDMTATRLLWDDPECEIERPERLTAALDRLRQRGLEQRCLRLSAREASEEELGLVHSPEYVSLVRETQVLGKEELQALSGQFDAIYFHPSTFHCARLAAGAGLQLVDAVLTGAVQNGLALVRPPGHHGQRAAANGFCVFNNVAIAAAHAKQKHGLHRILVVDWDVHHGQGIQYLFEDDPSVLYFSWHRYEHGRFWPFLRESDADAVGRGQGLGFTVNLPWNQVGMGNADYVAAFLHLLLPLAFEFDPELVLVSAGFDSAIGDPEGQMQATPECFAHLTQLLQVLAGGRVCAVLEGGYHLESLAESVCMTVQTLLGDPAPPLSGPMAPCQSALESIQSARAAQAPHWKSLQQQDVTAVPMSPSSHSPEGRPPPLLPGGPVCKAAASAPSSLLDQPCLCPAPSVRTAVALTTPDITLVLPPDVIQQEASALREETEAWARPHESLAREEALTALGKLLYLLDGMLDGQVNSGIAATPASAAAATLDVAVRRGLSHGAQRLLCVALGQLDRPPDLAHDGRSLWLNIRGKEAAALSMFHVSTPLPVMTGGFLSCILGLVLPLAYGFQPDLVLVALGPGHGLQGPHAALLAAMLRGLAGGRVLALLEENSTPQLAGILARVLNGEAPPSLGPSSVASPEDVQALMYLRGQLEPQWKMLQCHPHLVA
Description: Inhibition of HDAC10 (unknown origin).

In a further test the target is T4, Histone deacetylase 8 (Homo sapiens, UniProt Q9BY41).
T4 sequence (Q9BY41 whole entry): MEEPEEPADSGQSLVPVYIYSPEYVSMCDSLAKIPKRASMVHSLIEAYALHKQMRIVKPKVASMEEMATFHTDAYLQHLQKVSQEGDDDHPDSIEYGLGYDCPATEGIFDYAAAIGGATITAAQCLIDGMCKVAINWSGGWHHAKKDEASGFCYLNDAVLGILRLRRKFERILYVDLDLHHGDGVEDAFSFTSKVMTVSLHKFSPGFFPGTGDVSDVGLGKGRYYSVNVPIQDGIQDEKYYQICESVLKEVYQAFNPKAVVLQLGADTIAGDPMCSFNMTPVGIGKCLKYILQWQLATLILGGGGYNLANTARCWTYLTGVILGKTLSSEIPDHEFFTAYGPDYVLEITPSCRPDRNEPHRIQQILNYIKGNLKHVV
Description: Inhibition of HDAC8 (unknown origin).

In another test the target is Histone deacetylase 3 (Homo sapiens, UniProt O15379). Description: Inhibition of HDAC3 (unknown origin).
Test [3] has as its target T5, Histone deacetylase 4 (Homo sapiens, UniProt P56524). Description: Inhibition of HDAC4 (unknown origin).
The next test concerns the target Histone deacetylase 2 (Homo sapiens, UniProt Q92769). Description: Inhibition of HDAC2 (unknown origin).
In test [4] the target is T6, Histone deacetylase 5 (Homo sapiens, UniProt Q9UQL6). Description: Inhibition of HDAC5 (unknown origin).
For test [5], the target named is T7, Histone deacetylase 7 (Homo sapiens, UniProt Q8WUI4).
T7 sequence (Q8WUI4 whole entry): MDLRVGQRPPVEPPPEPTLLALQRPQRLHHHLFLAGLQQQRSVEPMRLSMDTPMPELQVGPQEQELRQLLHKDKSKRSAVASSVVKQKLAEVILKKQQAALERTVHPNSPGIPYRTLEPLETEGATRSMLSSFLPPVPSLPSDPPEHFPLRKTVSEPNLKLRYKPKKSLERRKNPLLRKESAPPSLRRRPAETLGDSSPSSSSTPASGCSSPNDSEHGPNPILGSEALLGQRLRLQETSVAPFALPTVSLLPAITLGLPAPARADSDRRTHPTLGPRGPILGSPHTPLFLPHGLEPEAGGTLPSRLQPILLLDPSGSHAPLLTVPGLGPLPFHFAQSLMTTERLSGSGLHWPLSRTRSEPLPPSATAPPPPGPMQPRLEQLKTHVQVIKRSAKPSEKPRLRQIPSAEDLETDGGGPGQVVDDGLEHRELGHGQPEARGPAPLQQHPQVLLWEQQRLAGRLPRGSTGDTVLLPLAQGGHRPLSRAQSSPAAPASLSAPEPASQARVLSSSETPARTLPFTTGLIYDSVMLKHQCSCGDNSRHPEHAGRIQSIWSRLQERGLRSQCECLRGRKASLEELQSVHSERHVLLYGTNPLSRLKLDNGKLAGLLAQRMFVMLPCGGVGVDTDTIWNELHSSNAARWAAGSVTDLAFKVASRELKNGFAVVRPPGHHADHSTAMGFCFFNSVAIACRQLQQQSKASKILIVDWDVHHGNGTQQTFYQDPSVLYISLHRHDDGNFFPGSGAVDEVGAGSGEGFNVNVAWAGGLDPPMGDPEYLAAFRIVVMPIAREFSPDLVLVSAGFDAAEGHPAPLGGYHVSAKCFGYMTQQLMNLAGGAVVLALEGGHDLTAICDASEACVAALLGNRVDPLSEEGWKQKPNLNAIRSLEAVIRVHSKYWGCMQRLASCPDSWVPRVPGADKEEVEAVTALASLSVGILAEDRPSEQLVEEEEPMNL
Description: Inhibition of HDAC7 (unknown origin).

In test [6] the target is T8, Histone deacetylase 9 (Homo sapiens, UniProt Q9UKV0). Description: Inhibition of HDAC9 (unknown origin).
For the next test, the target named is Histone deacetylase 1 (Homo sapiens, UniProt Q13547). Description: Inhibition of HDAC1 (unknown origin).
The target of test [7] is T8, Histone deacetylase 9. Description: Inhibition of HDAC9 in human HeLa nuclear extract using Boc-Lys(Ac)-AMC as substrate preincubated for 5 mins followed by substrate addition measured after 30 mins by fluorometric assay. Type of test: cell-free.
Test [8] has as its target T5, Histone deacetylase 4. Description: Inhibition of HDAC4 in human HeLa nuclear extract using Boc-Lys(Ac)-AMC as substrate preincubated for 5 mins followed by substrate addition measured after 30 mins by fluorometric assay. In kind it is cell-free.
Test [9] concerns the target T6, Histone deacetylase 5. Description: Inhibition of HDAC5 in human HeLa nuclear extract using Boc-Lys(Ac)-AMC as substrate preincubated for 5 mins followed by substrate addition measured after 30 mins by fluorometric assay. Type of test: cell-free.
Test [10] deals with T7, Histone deacetylase 7. Description: Inhibition of HDAC7 in human HeLa nuclear extract using Boc-Lys(Ac)-AMC as substrate preincubated for 5 mins followed by substrate addition measured after 30 mins by fluorometric assay. In kind it is cell-free.
In test [11] the target is T1, Protein deacetylase HDAC6. Description: Inhibition of HDAC6 in human HeLa nuclear extract using Boc-Lys(Ac)-AMC as substrate preincubated for 5 mins followed by substrate addition measured after 30 mins by fluorometric assay. In kind it is cell-free.

One may read the Ki as a measure of affinity in units of concentration, obtained from inhibition or displacement. For orientation: IC50 means the point on the concentration scale where inhibition reaches its midpoint. Low values mean greater potency, high ones weaker potency.

T6 sequence (Q9UQL6 whole entry): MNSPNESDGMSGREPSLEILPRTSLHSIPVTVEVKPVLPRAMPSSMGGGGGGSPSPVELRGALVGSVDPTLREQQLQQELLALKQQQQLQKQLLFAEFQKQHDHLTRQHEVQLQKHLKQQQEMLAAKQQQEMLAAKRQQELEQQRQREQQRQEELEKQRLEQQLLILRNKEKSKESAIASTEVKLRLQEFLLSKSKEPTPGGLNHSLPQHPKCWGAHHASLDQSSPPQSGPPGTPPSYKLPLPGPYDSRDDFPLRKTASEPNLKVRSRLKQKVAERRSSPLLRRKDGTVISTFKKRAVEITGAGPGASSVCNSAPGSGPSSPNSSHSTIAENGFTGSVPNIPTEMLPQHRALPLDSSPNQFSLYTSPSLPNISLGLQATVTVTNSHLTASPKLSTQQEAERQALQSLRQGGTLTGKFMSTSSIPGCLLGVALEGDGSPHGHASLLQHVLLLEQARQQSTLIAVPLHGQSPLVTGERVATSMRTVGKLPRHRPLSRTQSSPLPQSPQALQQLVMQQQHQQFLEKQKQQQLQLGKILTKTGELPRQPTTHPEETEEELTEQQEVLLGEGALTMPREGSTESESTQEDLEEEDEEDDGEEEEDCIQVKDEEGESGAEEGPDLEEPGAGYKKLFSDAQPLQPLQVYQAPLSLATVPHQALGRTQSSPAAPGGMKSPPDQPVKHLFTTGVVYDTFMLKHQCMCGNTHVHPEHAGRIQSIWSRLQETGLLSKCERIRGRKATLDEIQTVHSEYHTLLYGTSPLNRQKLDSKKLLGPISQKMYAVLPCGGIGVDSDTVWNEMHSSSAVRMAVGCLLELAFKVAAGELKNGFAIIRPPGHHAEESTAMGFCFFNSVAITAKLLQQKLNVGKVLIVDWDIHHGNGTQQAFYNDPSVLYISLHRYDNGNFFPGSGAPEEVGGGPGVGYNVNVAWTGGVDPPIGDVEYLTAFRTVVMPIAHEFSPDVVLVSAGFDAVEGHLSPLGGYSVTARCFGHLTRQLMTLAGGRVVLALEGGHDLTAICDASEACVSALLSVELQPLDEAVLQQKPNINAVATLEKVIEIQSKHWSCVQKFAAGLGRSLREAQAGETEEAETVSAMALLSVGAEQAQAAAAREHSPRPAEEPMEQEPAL
T8 sequence (Q9UKV0 whole entry): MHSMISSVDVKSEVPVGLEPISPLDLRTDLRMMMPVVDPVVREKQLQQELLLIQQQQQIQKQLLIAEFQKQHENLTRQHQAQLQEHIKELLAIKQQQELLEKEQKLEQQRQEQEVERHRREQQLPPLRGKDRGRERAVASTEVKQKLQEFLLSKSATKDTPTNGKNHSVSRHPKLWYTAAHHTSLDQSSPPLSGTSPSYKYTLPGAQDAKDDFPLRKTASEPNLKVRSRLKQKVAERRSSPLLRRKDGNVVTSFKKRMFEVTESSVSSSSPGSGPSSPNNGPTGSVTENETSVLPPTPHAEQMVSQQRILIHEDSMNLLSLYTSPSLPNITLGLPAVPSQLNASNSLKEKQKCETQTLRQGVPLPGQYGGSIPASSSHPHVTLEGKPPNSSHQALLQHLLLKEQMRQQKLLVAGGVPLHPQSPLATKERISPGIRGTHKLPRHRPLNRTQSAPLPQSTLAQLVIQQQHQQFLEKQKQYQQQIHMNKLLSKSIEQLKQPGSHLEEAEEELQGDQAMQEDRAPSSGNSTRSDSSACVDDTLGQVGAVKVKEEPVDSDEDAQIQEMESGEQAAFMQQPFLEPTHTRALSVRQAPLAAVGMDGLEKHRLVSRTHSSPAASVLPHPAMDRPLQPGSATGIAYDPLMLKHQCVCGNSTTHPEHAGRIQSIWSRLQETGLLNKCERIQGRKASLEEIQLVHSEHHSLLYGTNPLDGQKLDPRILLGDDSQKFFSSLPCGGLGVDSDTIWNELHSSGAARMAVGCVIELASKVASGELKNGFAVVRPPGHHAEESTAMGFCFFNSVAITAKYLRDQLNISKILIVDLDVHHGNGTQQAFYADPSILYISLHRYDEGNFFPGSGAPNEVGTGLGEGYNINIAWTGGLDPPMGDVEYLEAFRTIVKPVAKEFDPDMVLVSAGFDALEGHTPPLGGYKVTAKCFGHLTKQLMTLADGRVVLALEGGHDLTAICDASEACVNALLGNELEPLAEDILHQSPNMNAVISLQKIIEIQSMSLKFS
T5 sequence (P56524 whole entry): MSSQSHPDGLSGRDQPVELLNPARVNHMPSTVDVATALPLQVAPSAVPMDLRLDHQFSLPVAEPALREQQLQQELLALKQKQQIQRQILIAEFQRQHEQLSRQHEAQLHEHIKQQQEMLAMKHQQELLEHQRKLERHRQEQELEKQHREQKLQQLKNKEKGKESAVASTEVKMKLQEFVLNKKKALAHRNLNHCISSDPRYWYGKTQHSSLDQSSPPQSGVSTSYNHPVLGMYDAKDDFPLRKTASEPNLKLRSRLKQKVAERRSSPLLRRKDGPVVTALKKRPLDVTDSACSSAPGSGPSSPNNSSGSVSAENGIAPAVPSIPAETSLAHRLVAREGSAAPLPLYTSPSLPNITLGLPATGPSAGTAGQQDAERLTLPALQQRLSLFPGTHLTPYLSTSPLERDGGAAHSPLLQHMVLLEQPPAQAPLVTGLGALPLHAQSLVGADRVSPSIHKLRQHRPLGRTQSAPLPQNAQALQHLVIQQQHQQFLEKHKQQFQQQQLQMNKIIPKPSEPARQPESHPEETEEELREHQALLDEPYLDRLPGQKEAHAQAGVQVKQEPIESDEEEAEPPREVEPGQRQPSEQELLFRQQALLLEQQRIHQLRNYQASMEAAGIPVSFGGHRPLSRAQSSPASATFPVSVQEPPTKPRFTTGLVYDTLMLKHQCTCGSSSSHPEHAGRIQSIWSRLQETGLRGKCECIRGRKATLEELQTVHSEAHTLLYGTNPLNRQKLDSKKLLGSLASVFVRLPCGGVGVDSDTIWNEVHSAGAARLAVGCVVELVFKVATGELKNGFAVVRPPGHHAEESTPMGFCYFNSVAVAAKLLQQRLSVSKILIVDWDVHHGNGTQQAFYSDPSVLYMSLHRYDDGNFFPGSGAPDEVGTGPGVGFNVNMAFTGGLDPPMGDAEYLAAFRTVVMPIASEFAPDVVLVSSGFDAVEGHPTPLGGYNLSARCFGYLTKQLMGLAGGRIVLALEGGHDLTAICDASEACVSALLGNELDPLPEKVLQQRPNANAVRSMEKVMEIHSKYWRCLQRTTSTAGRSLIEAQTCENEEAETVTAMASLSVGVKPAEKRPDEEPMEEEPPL
Chain of Histone deacetylase 1 (Q13547 whole entry): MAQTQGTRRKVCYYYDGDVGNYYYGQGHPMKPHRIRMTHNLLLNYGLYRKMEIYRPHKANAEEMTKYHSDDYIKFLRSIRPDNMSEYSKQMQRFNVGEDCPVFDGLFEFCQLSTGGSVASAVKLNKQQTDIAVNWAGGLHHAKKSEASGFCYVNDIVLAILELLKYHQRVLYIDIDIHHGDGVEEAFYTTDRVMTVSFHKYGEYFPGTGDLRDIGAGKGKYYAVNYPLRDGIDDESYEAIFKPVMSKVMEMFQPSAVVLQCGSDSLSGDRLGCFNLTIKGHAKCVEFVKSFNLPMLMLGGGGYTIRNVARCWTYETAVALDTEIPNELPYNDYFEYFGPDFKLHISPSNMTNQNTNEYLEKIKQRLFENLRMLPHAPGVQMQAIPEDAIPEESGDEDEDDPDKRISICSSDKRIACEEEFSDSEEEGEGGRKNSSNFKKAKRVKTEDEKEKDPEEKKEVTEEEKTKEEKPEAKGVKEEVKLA
Chain of Histone deacetylase 3 (O15379 whole entry): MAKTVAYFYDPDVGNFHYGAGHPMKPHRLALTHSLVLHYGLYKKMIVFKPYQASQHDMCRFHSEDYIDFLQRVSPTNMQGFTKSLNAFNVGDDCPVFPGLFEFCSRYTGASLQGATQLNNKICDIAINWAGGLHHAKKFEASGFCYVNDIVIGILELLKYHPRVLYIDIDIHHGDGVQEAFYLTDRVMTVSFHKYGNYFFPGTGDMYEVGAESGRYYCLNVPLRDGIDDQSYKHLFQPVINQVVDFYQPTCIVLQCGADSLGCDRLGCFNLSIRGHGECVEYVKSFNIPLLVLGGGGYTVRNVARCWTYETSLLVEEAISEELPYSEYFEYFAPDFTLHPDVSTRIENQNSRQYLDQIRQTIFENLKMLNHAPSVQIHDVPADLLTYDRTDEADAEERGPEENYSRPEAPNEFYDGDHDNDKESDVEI
Chain of Histone deacetylase 2 (Q92769 whole entry): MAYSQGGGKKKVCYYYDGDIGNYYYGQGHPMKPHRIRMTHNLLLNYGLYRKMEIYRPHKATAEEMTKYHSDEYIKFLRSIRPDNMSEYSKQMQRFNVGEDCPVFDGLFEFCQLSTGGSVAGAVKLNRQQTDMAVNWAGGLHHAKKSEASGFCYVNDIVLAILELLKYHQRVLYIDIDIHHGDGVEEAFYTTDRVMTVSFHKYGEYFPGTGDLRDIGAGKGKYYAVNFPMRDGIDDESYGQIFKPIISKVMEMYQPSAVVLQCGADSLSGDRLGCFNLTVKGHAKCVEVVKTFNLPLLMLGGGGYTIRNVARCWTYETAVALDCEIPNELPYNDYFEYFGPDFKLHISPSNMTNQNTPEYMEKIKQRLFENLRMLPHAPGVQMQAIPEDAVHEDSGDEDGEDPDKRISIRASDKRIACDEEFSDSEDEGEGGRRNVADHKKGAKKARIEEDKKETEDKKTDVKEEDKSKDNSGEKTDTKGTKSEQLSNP

Turning to `CN1CCC(CNC(=O)c2cccc(C(=O)NO)c2)(c2nc(-c3ccccc3)cs2)CC1`, the Ki in [1] was 0.189 µM; at Histone deacetylase 11 it was above 19 µM; in [2] it was above 10 µM; at Histone deacetylase 8, 1.33 µM; at Histone deacetylase 3, above 43 µM; on Histone deacetylase 4 [3], 23.8 µM. Besides, the Ki was above 19 µM at Histone deacetylase 2; 24.3 µM at Histone deacetylase 5 [4]; 3.94 µM at Histone deacetylase 7 [5]; 5.98 µM at Histone deacetylase 9 [6]; 11.9 µM on Histone deacetylase 1.
For the molecule `CN1CCC(CNC(=O)c2cccc(-c3noc(C(F)(F)F)n3)c2)(c2nc(-c3ccccc3)cs2)CC1`, the Ki in test [1] is 2.81 µM; at Histone deacetylase 11, above 19 µM; in test [2] it was above 10 µM; at Histone deacetylase 8, 7.66 µM; on Histone deacetylase 3, above 43 µM; on Histone deacetylase 4 [3], 0.075 µM. Further, the Ki on Histone deacetylase 2 was above 19 µM; on Histone deacetylase 5 [4], 0.182 µM; at Histone deacetylase 9 [6], 0.008 µM; at Histone deacetylase 1 it was above 23 µM.
Consider `CN(Cc1cnc2nc(N)nc(N)c2n1)c1ccc(C(=O)NC(CCP(=O)(O)O)P(=O)(O)O)cc1` (stereo unspecified), for which the IC50 in test [1] is above 40 µM; against Histone deacetylase 9 [7] it was above 40 µM; against Histone deacetylase 4 [3] it was 4.16 µM; against Histone deacetylase 5 [4], 1.27 µM; at Histone deacetylase 7 [5] it was 16.2 µM; against Histone deacetylase 4 [8] it was above 40 µM. Further, the IC50 at Histone deacetylase 9 [6] was 7.84 µM; against Histone deacetylase 5 [9], above 40 µM; against Histone deacetylase 7 [10] it was above 40 µM; in test [11], above 40 µM.
